Where two headings read alike, the source gives them in different places.
Legend:
[1] = system: HL-60 (TB); settings: HL-60 (TB) (Leukemia)
[2] = system: HCT-116; test: NCI-60 panel cell growth screen; format: cell-based, human; settings: HCT-116 (Colon cancer)
[3] = system: A549; test: NCI-60 panel cell growth screen; format: cell-based, human; settings: A549 (NSCLC)
[4] = system: SNB-75; test: NCI-60 panel cell growth screen; format: cell-based, human; settings: SNB-75 (CNS Cancer)
[5] = system: PDGFR; test: Kinase inhibitory profile; format: biochemical; settings: Other Clinically-relevant Kinases; 10-point concentration assays
[6] = biological target: VPS34 (Homo sapiens, UniProt Q8NEB9); test: Kinase inhibitory profile; format: biochemical; settings: Class III PI3Ks; 10-point concentration assays
[7] = system: MM.1S myeloma cells; test: Mouse xenograft model of myeloma; format: in vivo, mice; settings: subcutaneous myeloma xenograft; intravenous; bortezomib 0.5 mg/kg, DT97 10 mg/kg
Procedure: Five week old nude mice flanks are injected subcutaneously with MM.1S myeloma cells. Tumors formed within two weeks and mice were then treated intravenously with vehicle, bortezomib, DT97 or both bortezomib and DT97.
Subcutaneous tumors were generated after injection of myeloma cells. […] Vehicle or bortezomib was administered on days 1, 4, 8 and 11. Mice were euthanized when tumors reached 2 cm^3, became ulcerated or elicited neurologic or musculoskeletal complications that limited mobility and feeding. Survival and tumor growth were evaluated from the first day of treatment. Shown is the average of replicate measurements. […] Kaplan-Meier survival curves comparison of NOD. SCID mice after subcutaneous injection of parental myeloma cells treated with vehicle, DT97, bortezomib or both.
Mice received intravenous injection of either vehicle (PBS in 10% DMSO); bortezomib (0.5 mg/kg), DT97 (10 mg/kg) or both bortezomib and DT97. Tumor volume (TV) measurements were made using a vernier caliper and calculated using the formula: TV = 0.5 (a × b^2) where a is the long diameter and b the short diameter. Mice were euthanized when tumors reached 2 cm^3, became ulcerated or elicited neurologic or musculoskeletal complications that limited mobility and feeding.
In vivo statistical tests were performed using the 2-tailed Student t test.

[8] = biological target: p110-δ (Homo sapiens, UniProt O00329); test: Kinase inhibitory profile / PIP3 production; parameters: Inhibitory profile (kinase inhibition): key to the marks not given beside the values
[9] = system: CXCR12; test: CXCL12/SDF-1 alpha ELISA, MM cells co-cultured with BMSCs; format: cell-based, human
[10] = system: KM12; test: NCI-60 panel cell growth screen; format: cell-based, human; settings: KM12 (Colon cancer)
[11] = system: MM cells; test: Transwell chemotaxis of CFSE-labeled MM cells toward BMSCs; format: cell-based; settings: counted at 72 h
Text: BMSCs induce the migration and homing (chemotaxis) of MM cells to BM. […] MM cells were placed in the upper chamber separated from BMSCs in the lower chamber by a semi-permeable membrane. […] It appears that DT97 treatment prevents MM migration, in part, through the reduction of cytokine production.

[12] = system: peripheral blood mononuclear cells (PBMCs); test: Apoptosis (in situ cell death detection) in PBMCs; format: cell-based; settings: Figure 5B
[13] = read-out: LC50 (the source's name)

p110-δ, sequence (O00329 whole entry): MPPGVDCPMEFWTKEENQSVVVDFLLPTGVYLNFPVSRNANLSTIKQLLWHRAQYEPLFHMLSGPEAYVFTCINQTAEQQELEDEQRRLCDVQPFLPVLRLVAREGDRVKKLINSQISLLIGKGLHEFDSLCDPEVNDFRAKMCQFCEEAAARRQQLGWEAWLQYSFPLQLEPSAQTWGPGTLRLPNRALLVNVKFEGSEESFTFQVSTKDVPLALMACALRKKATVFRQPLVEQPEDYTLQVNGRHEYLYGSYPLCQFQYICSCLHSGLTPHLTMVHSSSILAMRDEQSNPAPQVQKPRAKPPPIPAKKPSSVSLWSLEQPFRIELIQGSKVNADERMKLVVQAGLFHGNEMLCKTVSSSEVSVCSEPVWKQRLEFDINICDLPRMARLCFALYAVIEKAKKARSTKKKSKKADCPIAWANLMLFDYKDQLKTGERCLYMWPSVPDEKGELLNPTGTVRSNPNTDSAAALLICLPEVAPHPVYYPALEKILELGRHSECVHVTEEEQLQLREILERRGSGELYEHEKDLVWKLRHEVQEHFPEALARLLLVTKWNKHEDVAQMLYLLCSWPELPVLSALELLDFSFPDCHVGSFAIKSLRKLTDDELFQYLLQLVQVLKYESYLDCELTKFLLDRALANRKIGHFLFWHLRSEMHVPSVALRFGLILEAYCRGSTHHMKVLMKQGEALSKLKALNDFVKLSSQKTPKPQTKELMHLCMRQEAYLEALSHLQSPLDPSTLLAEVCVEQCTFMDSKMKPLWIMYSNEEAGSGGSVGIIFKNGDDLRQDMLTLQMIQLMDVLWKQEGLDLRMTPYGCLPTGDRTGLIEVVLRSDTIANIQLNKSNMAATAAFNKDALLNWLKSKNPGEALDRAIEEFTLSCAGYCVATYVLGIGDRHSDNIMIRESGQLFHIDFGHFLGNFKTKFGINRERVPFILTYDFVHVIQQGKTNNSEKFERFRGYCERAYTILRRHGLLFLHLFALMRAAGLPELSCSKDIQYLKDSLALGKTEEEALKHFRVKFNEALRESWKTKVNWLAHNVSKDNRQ
p110-δ, sequence (P27986 whole entry partner): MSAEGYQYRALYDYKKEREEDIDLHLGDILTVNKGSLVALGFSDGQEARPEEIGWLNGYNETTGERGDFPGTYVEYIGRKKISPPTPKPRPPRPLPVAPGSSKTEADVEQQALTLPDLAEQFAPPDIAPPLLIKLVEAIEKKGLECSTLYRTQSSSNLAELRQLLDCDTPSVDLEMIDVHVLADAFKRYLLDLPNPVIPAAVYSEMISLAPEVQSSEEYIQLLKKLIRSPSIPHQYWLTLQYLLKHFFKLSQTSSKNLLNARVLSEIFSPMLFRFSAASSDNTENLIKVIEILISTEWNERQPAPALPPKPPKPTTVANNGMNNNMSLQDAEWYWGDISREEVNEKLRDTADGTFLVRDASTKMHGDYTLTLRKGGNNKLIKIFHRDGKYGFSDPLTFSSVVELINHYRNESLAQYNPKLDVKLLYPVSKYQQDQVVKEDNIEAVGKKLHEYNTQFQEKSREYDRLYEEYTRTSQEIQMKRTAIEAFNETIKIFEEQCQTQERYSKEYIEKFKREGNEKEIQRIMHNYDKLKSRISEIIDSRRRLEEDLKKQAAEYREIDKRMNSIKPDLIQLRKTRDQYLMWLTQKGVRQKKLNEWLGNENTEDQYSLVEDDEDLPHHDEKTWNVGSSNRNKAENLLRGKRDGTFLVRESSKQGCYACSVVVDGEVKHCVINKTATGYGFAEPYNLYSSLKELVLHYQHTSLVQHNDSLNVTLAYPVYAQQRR
VPS34, sequence (Q8NEB9 whole entry): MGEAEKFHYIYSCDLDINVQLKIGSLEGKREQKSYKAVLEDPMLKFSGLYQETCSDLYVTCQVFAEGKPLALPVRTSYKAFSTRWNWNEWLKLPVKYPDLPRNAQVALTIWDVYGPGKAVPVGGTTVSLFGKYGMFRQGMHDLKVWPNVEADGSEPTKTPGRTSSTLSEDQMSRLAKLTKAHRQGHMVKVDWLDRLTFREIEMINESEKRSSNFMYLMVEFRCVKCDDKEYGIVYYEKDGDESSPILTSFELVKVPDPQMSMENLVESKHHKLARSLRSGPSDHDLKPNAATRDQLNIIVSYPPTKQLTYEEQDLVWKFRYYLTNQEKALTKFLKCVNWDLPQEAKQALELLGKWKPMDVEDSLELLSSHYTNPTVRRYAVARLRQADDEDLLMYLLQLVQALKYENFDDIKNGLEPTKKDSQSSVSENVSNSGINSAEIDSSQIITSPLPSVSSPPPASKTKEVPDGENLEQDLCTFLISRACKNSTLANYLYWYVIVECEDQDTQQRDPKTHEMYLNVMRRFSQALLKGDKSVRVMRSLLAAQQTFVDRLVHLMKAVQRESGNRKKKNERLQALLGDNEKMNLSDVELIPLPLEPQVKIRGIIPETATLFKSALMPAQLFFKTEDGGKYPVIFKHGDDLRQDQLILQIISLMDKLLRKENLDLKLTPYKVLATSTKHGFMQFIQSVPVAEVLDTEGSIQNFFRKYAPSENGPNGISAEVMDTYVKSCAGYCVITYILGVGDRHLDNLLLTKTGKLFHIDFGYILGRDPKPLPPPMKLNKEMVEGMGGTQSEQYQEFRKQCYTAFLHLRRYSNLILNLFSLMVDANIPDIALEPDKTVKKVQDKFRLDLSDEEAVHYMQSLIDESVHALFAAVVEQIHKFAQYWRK

Substance: N-[4-hydroxy-3-(8-quinolinylthio)-1-naphthyl]benzenesulfonamide [DT97]
- GI50 [1]: 487 nM
- TGI [1]: 4.69E-6
- Percent Growth ([1]; log concentration −4.0): −63%
- Percent Growth ([1]; log concentration −5.0): −15%
- Percent Growth ([1]; log concentration −6.0): 31%
- Percent Growth ([1]; log concentration −7.0): 93%
- Percent Growth ([1]; log concentration −8.0): 99%
- CC50 ([1]; read-out: LC50): 53.1 µM
- GI50 [2]: 555 nM
- TGI [2]: 2.80E-6
- Percent Growth ([2]; log concentration −4.0): −92%
- Percent Growth ([2]; log concentration −5.0): −43%
- Percent Growth ([2]; log concentration −6.0): 34%
- Percent Growth ([2]; log concentration −7.0): 95%
- Percent Growth ([2]; log concentration −8.0): 98%
- CC50 [2, 13]: 14.1 µM
- GI50 [3]: 747 nM
- TGI [3]: 1.81E-5
- Percent Growth ([3]; log concentration −4.0): −46%
- Percent Growth ([3]; log concentration −5.0): 16%
- Percent Growth ([3]; log concentration −6.0): 41%
- Percent Growth ([3]; log concentration −7.0): 112%
- Percent Growth ([3]; log concentration −8.0): 106%
- GI50 [4]: 3.23 µM
- TGI [4]: 1.69E-5
- Percent Growth ([4]; log concentration −4.0): −100%
- Percent Growth ([4]; log concentration −5.0): 29%
- Percent Growth ([4]; log concentration −6.0): 75%
- Percent Growth ([4]; log concentration −7.0): 73%
- Percent Growth ([4]; log concentration −8.0): 76%
- CC50 [4, 13]: 41.2 µM
- Inhibitory profile (kinase inhibition) [5]: none
- Inhibitory profile (kinase inhibition) [6]: none
- overall survival (OS) [7]: 16 days
- Inhibitory profile (kinase inhibition) ([8]; Class I PI3Ks, 10-point concentration assays): +++
- production of PIP3 (dose-dependent effect) ([8]; p110-δ isoform, Figure 4B): most potently
- production of CXCR12 [9]: induction was inhibited
- GI50 [10]: 2030 nM
- TGI [10]: 1.65E-5
- Percent Growth ([10]; log concentration −4.0): −87%
- Percent Growth ([10]; log concentration −5.0): 24%
- Percent Growth ([10]; log concentration −6.0): 61%
- Percent Growth ([10]; log concentration −7.0): 104%
- Percent Growth ([10]; log concentration −8.0): 104%
- CC50 [10, 13]: 46.6 µM
- migration of MM cells into the lower chambers with BMSCs [11]: reduced the migration
- apoptosis [12]: did not induce apoptosis
